In patent US20230145823A1 (priority 2020, published 2023):
Read-outs that look alike come from different tables or passages of the source.

Legend:
[1] = previous studies; cited from earlier work
[2] = test system: TNF-α; assay type: cell-based; details: RAW264.7 cells, LPS, 25 μM furosemide, 24 h
[3] = test system: interleukin-1 receptor antagonist (IL-1RA); assay: IL-1RA in conditioned medium of differentiated THP-1 cells, Multiplex assay using flow cytometry; assay type: cell-based; details: LPS and IFNγ, 48 h
Experimental: (§1) THP-1 cells (ATCC) were maintained in RPMI 1,640 medium supplemented with 2-mercaptoethanol at a final concentration of 0.05 mM and FBS at a final concentration of 10%. THP-1 cells were seeded in each well of a 12-well tissue culture plate at a density 0.5×10^6 cells/mL, one day before experiments. THP-1 monocytes were differentiated by 150 nM PMA (phorbol 12-myristate 13-acetate) for 24 h.
The levels of anti-inflammatory cytokines from the conditioned medium of differentiated THP-1 cells were measured after 48 h of stimulation with LPS and IFNγ by Multiplex assay using flow cytometry.

[4] = test system: pro-IL-1β; assay: pro-IL-1β expression in differentiated THP-1 macrophages, Western blot; assay type: cell-based; details: PMA-differentiated THP-1 cells, LPS/IFNγ, 48 h
Experimental: as §1
Cells were washed twice with ice-cold PBS and harvested in RIPA buffer supplemented with a protease inhibitor cocktail. The whole-cell extracts were then centrifuged at 22,000×g for 20 min at 4° C. to remove cell debris. Protein concentrations were quantified using a Micro BCA protein assay kit. The absorbance was measured at 595 nm using a microplate reader. Equal amounts of cellular protein were separated by sodium dodecyl sulfate-polyacrylamide gel electrophoresis (SDS-PAGE) and transferred onto polyvinylidene difluoride (PVDF) membranes at 100 V for 90 min. The SDS-PAGE was performed with 10% polyacrylamide gel for iNOS and 12.5% for pro-IL-1β. The membranes were blocked for 1 h in Tris-buffered saline (TBS), pH 7.4, with 0.1% Tween-20 (TBS-T) containing 10% skim milk. […]

[5] = test system: TNF-α; assay: LPS-induced TNF-α production from SIM-A9 cells, ELISA; assay type: cell-based; details: SIM-A9 cells stimulated with LPS
Experimental: (§2) Cytokines were quantified using ELISA kits following the manufacturer's instructions. Briefly, the high-binding plates were coated at 100 μL/well with diluted capture antibodies (1:250) at 4° C. overnight. The coated plates were then blocked with the diluent for 1 h before assay. Each sample was diluted accordingly and added to the plates for a 2 h incubation period at room temperature. Plates were then washed with 250 μL/well PBS with 0.05% Tween-20 and incubated with detection antibodies (1:250 in assay diluent) for 1 h at room temperature. After another washing step, 1:250 diluted avidin-HRP (horseradish peroxidase) was added and incubated for 30 min. Next, 100 μL TMB-substrate (3,3′,5,5′-tetramethylbenzidine) was added and the plate was incubated in the dark until the signal was sufficiently developed. […]. Absorbance was measured at 450 nm with a correction of 570 nm using a plate reader.
(§3) SIM-A9 (ATCC) cells were maintained in Dulbecco's modified eagle medium: nutrient mixture F-12 (DMEM-F12) with 10% foetal bovine serum, 5% horse-serum and antibiotic-antimycotic. SIM-A9 cells were seeded 24 h before the experiment. Culturing medium was replaced with DMEM-F12 medium containing 5% FBS+2.5% horse serum with required LPS concentration (final volume was one mL/well). The conditioned media and lysates were harvested for cytokine and cell marker examination.
. […]

[6] = cited from earlier work
[7] = cited from earlier work; remark: listed apart in the source
[8] = test system: inducible nitric oxide synthase (iNOS); details: RAW264.7, LPS+IFNγ, 25 μM furosemide, 24 h
Experimental: Cells were washed twice with ice-cold PBS and harvested in RIPA buffer supplemented with a protease inhibitor cocktail. The whole-cell extracts were then centrifuged at 22,000×g for 20 min at 4° C. to remove cell debris. Protein concentrations were quantified using a Micro BCA protein assay kit. The absorbance was measured at 595 nm using a microplate reader. Equal amounts of cellular protein were separated by sodium dodecyl sulfate-polyacrylamide gel electrophoresis (SDS-PAGE) and transferred onto polyvinylidene difluoride (PVDF) membranes at 100 V for 90 min. The SDS-PAGE was performed with 10% polyacrylamide gel for iNOS and 12.5% for pro-IL-1β. The membranes were blocked for 1 h in Tris-buffered saline (TBS), pH 7.4, with 0.1% Tween-20 (TBS-T) containing 10% skim milk. The membrane blot was then incubated overnight at 4° C. with primary antibodies against iNOS (1:1,000), IL-1(3 (1:1,000), actin (1:5,000) and GAPDH (1:5,000) in TBS-T containing 5% skim milk. The membrane was washed with TBS-T 3×10 mins and incubated with goat anti-rabbit IgG-horseradish peroxidase (1:5,000) for 1 hour. After the washing step, the immunoblotting was visualized by chemiluminescence HRP-substrate.

[9] = test system: arginase; assay: Arginase in conditioned medium of differentiated THP-1 cells, Multiplex assay using flow cytometry; assay type: cell-based; details: LPS and IFNγ, 48 h
Experimental: as §1
(§4) . The levels of anti-inflammatory cytokines from the conditioned medium of differentiated THP-1 cells were measured after 48 h of stimulation with LPS and IFNγ by Multiplex assay using flow cytometry. […]

[10] = test system: NO; assay type: cell-based; details: RAW264.7 cells, LPS, 25 μM furosemide, 24 h
[11] = test system: IL-4; assay: IL-4 in conditioned medium of differentiated THP-1 cells, Multiplex assay using flow cytometry; assay type: cell-based; details: LPS and IFNγ, 48 h
Experimental: as §1, §4

[12] = test system: NO; assay: LPS-induced NO production from SIM-A9 cells, Griess assay; assay type: cell-based; details: SIM-A9 cells stimulated with LPS
Experimental: Nitric oxide production from the conditioned media of RAW264.7 and SIM-A9 cell cultures was examined by a Griess assay. Conditioned medium and sulfanilamide were mixed in a microwell plate to form a transient diazonium salt. Then, N-naphtyl-ethylenediamine was added to all wells to form a stable azo compound by incubating for 5-10 min in the dark at room temperature. The absorbance was measured between 520 nm and 550 nm. The concentration of NO production was quantified by being plotted against a standard curve.
as §3
. IL-1β plays a key role in modulating inflammatory response as a downstream pro-inflammatory marker of the TLR4 signaling pathway by using differentiated THP-1 monocytes. The expression of IL-1β precursor protein (pro-IL-1β) from THP-1 macrophage cells was studied using Western blot analysis. […]. […]

[13] = test system: IL-6; assay: LPS-induced IL-6 production from SIM-A9 cells, ELISA; assay type: cell-based; details: SIM-A9 cells stimulated with LPS
Experimental: as §2, §3
. […]

[14] = test system: TLR4; assay: LPS-induced TLR4 expression in RAW264.7 macrophage cells, flow cytometry; assay type: cell-based; details: RAW264.7 cells stimulated with LPS
Experimental: RAW264.7 cells were purchased from ATCC and maintained in Dulbecco's Modified Eagle's Medium (DMEM) containing foetal bovine serum (FBS) at a final concentration of 10%. RAW264.7 cells were seeded in 12-well plates at 0.25×10^6 cells/well seeding density, one day before experiments. […]; conditioned media and lysates were harvested for analysis.
Cells were harvested and re-suspended with staining buffer. Cells were stained with antibody (1:100) by incubating at 4° C. for 30 min in the dark. Stained cells were centrifuged, and the supernatant was discarded. The cell pellets were then re-suspended in cell flow buffer, transferred to FACS tubes and analyzed by flow cytometry within 48 h. To all cells in the experiment, Fc blocker was added.
LPS is recognized by the cell surface pattern-recognition receptors such as the toll-like receptor 4 protein (TLR4) and triggers downstream signaling pathways. LPS induces expression of the pro-inflammatory cytokine IFNγ. IFNγ is known to increase TLR4 expression which may then promote the response to LPS stimulation. […]

[15] = test system: COVID-19; details: cited from earlier work
[16] = Grogono et al. 2018, nebulized 40 mg in 4 mL 0.9% saline, healthy adults, multiple dosing per day
[17] = 21 patients with severe COVID-19, within a few days
[18] = 21 patients with severe COVID-19

## NS(=O)(=O)c1cc(C(=O)O)c(NCc2ccco2)cc1Cl [furosemide, 4-chloro-N-furfuryl-5-sulfamoylanthranilic acid]
[1]
  time to be shuttled from the lung and excreted: 4 to 6 h
[2]
  production of TNF-α: significantly decreased
[2]; listed as Furosemide
  production of TNF-α: decreases
[3]
  expression of IL-1RA: induces
[4]
  expression of pro-IL-1β: significantly decreases
[5]
  production of TNF-α: significantly reduced
[6]; [16]
  relief of experimentally induced air hunger: effective relief
  untoward effects: no untoward effects
[6]; inhalation, previous studies
  dose shown safe by inhalation: up to 120 mg per dose
[6]; inhaled furosemide, patients with respiratory conditions
  lung IL-6, IL-8, and TNF-α levels: reduction
[6]; patients receiving inhaled furosemide up to 40 mg
  urge to urinate: no increase
[7]; non-salt furosemide, aqueous isotonic saline, pH between 8.0 and 9.3
  solution concentration achievable: 10 mg/mL
[7]; weakly basic buffer solution (pH 8)
  solution concentration achievable: 10 mg/mL
[8]
  expression of iNOS: suppress
[9]
  expression of arginase: induces
[10]
  production of NO: significantly decreased
[10]; listed as Furosemide
  production of NO: decreases
[11]
  expression of IL-4: induces
[12]
  production of NO: significantly reduced
[13]
  production of IL-6: significantly reduced
[14]
  LPS-induced TLR4 expression (TLR4+ cell population): completely blocked
[14]; listed as Furosemide
  LPS-induced TLR4 expression (TLR4+ cell population): significantly decreases

## tocilizumab: Roche's tocilizumab (Actemra), an IL-6 inhibitor
[15]; [17]
  all other symptoms: improved remarkably
  fevers: returned to normal
[15]; [18]
  adverse reactions: no obvious adverse reactions
  patients who lowered their oxygen intake: 75%
[15]; nineteen discharged patients
  average time to discharge following treatment: 13.5 days
